“Also recorded” adds a separate entry of the source.

For data set [1], the system named is F-actin in SKOV3 cells expressing LifeAct-GFP. Briefly: Live cell confocal imaging of LifeAct-GFP reporter (F-actin disruption). The class given is cell-based. The conditions noted are these: 0-2 hours. On the procedure: To visualize effects of analogs on cellular F-actin dynamics, several cancer cell lines were transduced with a lentivirus expressing a green fluorescent protein (GFP) fusion with LifeAct, a 17 amino-acid protein containing the actin-binding domain of a yeast protein. To produce this lentivirus, 500,000 HEK293T cells were seeded on a 6-well plate coated with 0.01 mg/ml of poly-lysine solution. 24 hours later viral packing plasmids Pax2 (1 ug) and MD2G (0.5 ug) were mixed in serum free media with 1 ug of pLenti.PGK.LifeAct-GFP.W (Addgene Catalogue No. 51010), and 10 uL of Xtreme-Gene (Roche, Germany) were then added to the master mix. The mix was vortexed and incubated at room temperature for 15 minutes before being added in a drop-wise manner to HEK293T cells. After 24 hours, HCC1954, SKBR3 or SKOV3 cells were seeded in a 6-well plate and incubated at 37° C. for 24 hours. The virus-containing media from the HEK293T cells media was collected and filtered (0.45 μm). HCC1954, SKBR3 or SKOV3 cells were incubated with 0.5 mL virus-containing media, and incubated at 37° C. for 2-3 days. Efficiency of transduction was determined by visualizing GFP positive cells using fluorescence microscopy. […]
Disruption of filamentous actin (F-actin) in HER2 cancer cells was measured using live cell confocal imaging of LifeAct-GFP reporter. […]

Data set [2] has as its system SKOV3 (ovarian) cells. The data set can be described thus: IncuCyte PI uptake assay of cytotoxicity. The class given is cell-based. The note with it: 48 hours of treatment, compared to DMSO control. As for the experimental part: The cytotoxicity of analogs was determined by using a PI uptake assay. HCC1954, SKBR3 or SKOV3 cells (2,000) were seeded in a 96-well plate. Treatments were prepared in 2% FBS containing media with 1 μM PI, and imaged using the IncuCyte Zoom Live Cell Analysis System equipped with a 10× objective. Phase contrast and fluorescent images were acquired every 2-3 hours for 48 hours. Several parameters are available upon analysis utilizing the IncuCyte Zoom Analysis tools including number of PI positive cells and cell confluence. See FIG. 8 for plots of SKOV3 cell analog cytotoxicity and HCC1954 cell analog cytotoxicity for specified treatments.
Cytotoxicity effects of Myc B and analogs in HER2 cancer cells was studied. Specifically, SKOV3 (ovarian) and HCC1954 (breast) cells were incubated with DMSO (1%) or analog (12.5-50 μM) in DMEM supplemented with 2% FBS and PI (1 μM) using an IncuCyte Zoom Live Cell Analysis System for 48 hours. As shown in FIGS. 10A-Q, graphs depict the number of PI positive for SKOV3 cells (left) and HCC1954 cells (right) over 48 hours of treatment with DMSO or indicated analog (12.5-50 μM).

Data set [3] has as its system HER2 cancer cells SKOV3 (ovarian) and HCC1954 (breast). The data set can be described thus: Growth suppression of HER2 cancer cells (cell confluence change, live cell imaging). It counts as cell-based. The note with it: analogs 25 μM, Lapatinib 25 μM as comparator. On the procedure:
Growth suppression of HER2 cancer cells by select Myc B analogs was studied to determine rate of growth of HER2 cancer cells (SKOV3 (ovarian) and HCC1954 (breast)) as measured using a live cell imaging system. Findings are shown in FIGS. 9A and 9B, SKOV3 Ovarian cancer and HCC1954 Breast cancer cells were incubated with DMSO (1%), Myc B (25 nM), or the indicated analogs (25 μM), or with HER2 inhibitor Lapatinib (25 μM) in DMEM supplemented with 2% FBS and PI (1 μM) using an IncuCyte Zoom Live Cell Analysis System for 48 hours. Graphs depict the percent change in confluence at 48 hours compared to time zero (significant differences from DMSO *p<0.05, **p<0.01, ***p<0.001).

Data set [4] concerns F-actin in SKOV3 cells. Briefly: F-actin staining (TRITC-Phalloidin) fluorescence micrographs. The note with it: 2 or 20 hours. It counts as cell-based. On the procedure:
Referring to FIG. 12, representative fluorescence micrographs are shown of SKOV3 cells treated with DMSO (1%), Myc B (25 nM), or indicated analog (10 μM) for 2 or 20 hours prior to staining of F-actin (TRITC-Phalloidin). the effects of Myc B analog treatments over 20 hours are compared with DMSO and Myc B in HER2 cancer cells. […] As described in Example 37, disruption of filamentous actin (F-actin) in HER2 cancer cells was measured using live cell confocal imaging of LifeAct-GFP reporter. The LifeAct-GFP signal in DMSO control conditions indicates the localization of F-actin structures in SKOV3 cells. […] Compounds described herein can be used to treat such actin-related problems because of their efficacy in disrupting actin, as shown by studies described in the Examples and Figures herein.

For data set [5], the system named is SKBR3, MDA-MB-453 and SKOV3 cells. Briefly: Cell viability, Trypan blue exclusion assay. The class given is cell-based. The note with it: multiple cancer cell lines. As for the experimental part:
Referring to FIG. 1A-C, the cytotoxicity of MycB on HER2+ breast and ovarian cancer cells was measured. Specifically, data is provided regarding the percentage of viable cells following treatment with MycB at 0-200 nM concentrations for 48 hours using SKBR3, MDA-MB-453 and SKOV3 cells. Cell viability was determined using Trypan blue exclusion assay (both unstained and stained cells were counted on a hemocytometer; values are mean±SEM of triplicate experiments).

Data set [6] has as its system HER2+ cell migration and invasion (SKOV3 cells). The data set can be described thus: Cell migration and invasion assays (IncuCyte scratch wound, spheroid reattachment). The class given is cell-based. The note with it: sub-lethal doses (low nM). As for the experimental part: Effects of analogs on cellular motility including invasion and migration were evaluated using the IncuCyte Live Cell System. 25,000 SKOV3 cells were plated on a 96-well ImageLock coated with 10 μg/ml of human fibronectin. Once the cells reached approximately 90% confluence a scratch/wound is induced using the IncuCyte Woundmaker (a 96-pin would making tool). The cells were then rinsed with sterile PBS then media, with or without treatment was added. To evaluate invasion 5% Matrigel was added. The plate was then inserted into the IncuCyte Zoom Live Cell Analysis System and imaged at 10× magnification every 2-3 hours following until wound closure or 48 hours.
The percentage of wound confluence, for migration, or would density, for invasion, was determined through the IncuCyte ZOOM Scratch Wound Analysis tool adjusted to cell line dependent processing definitions. See FIGS. 5 to 6 for images and graphical results.
A three-dimensional (3D) spheroid reattachment assay was performed to further evaluate analog effects on migration and invasion. A round bottom 96-well was coated with polyhydroxyehylmethacrylate (poly-hema) to create a non-adhesive conditions upon which cancer cells can form a 3D spheroid. […]
The percentage of migration/invasion was calculated using ImageJ (NIH) by measuring the area of migration or invasion and subtracting the intial size of the spheroid. […]

In data set [7] the test system is HER2+ SKOV3 subcutaneous tumor xenograft. Briefly: SKOV3 subcutaneous tumor xenograft study. It counts as in vivo, Rag2−/−:IL2Rγc−/− mice. As for the experimental part: Referring to FIGS. 3A and 3B, a proof-of-principle study of the anticancer effects of MycB in a SKOV3 tumor xenograft model. […] Following the detection of palpable tumors, mice were randomized between vehicle control (DMSO), MycB (100 ng, intratumoral), TZ (50 μg, intraperitoneal), or both MycB and TZ (same doses/delivery) twice weekly until endpoint was reached (n=6/group; significant differences between treatment groups based on ANOVA are indicated by *P<0.05, **** P<0.0001).
The anti-tumor effects of MycB analogs are also expected to extend to other cancer types with selection of appropriate antibodies for these tumor types with novel ADC formulations.

Turning to `CCCO[C@H](CC)C[C@H](OC)[C@@H](C)CC[C@@H](OC(=O)C(C)C)[C@H](C)[C@H](OC)[C@H](C)/C=C/N(C)C=O` [4f], in data set [1] (analogs 10 μM), the “F-actin structures (LifeAct-GFP signal)” value is listed as “limited effects at early time points”. Besides, the “Cytotoxicity: number of PI positive cells (PI uptake)” value in data set [2] was “significant cytoxicity response”. Besides, the “Growth suppression: percent change in confluence at 48 hours compared to time zero” value in data set [3] was “potent analog was seen in 4f (2534), with comparable effects of the HER2 inhibitor Lapatinib”.
Take `CCC(=O)O[C@H](CC)C[C@H](OC)[C@@H](C)CC[C@@H](OC(=O)C(C)C)[C@H](C)[C@H](OC)[C@H](C)/C=C/N(C)C=O` [4g]: the “Localization of endogenous F-actin (TRITC-Phalloidin)” value in data set [4] (analogs 10 μM) is “most highly disruptive of F-actin”.
Still for that read-out and setting: under `CCC(=O)O[C@H](CC)C[C@H](OC)[C@@H](C)CC[C@@H](OC(=O)[C@@H](C)OC)[C@H](C)[C@H](OC)[C@H](C)/C=C/N(C)C=O` [4h] stands “most highly disruptive of F-actin”.
On to `COC[C@@H](OC)C(=O)O[C@H](CC[C@H](C)[C@@H](C[C@@H]1OC(=O)C[C@@H](O)C/C=C/C(=O)[C@H](C)[C@H](OC)c2coc(n2)-c2coc(n2)-c2coc(n2)/C=C/C[C@H](OC)[C@H]1C)OC)[C@H](C)[C@H](OC(C)=O)[C@H](C)/C=C/N(C)C=O` [MycB, Mycalolide B], for which, in data set [1] (Myc B 25 nM), the “F-actin structures (LifeAct-GFP signal)” value is “time-dependent collapse of F-actin into large aggregates near the cell periphery”. In addition, the “Cytotoxicity: number of PI positive cells (PI uptake)” value in data set [2] is listed as “significant increase in PI uptake”. In addition, the “Cytotoxicity in cancer cell lines” value in data set [5] was “cytotoxicity in multiple cancer cell lines”. Also, in data set [6], the “Inhibition of cell motility and invasiveness” value is “significant inhibition of cell motility and invasiveness”. Further, the “Growth of SKOV3 tumors (tumor volume and mass)” value in data set [7] (MycB 100 ng intratumoral in combination with TZ 50 μg intraperitoneal, twice weekly) was “reduced growth of SKOV3 tumors; also recorded: potential improvement when combined with TZ (Herceptin) on limiting tumor growth and metastasis”; in data set [7] (MycB alone, 100 ng intratumoral twice weekly), “reduced growth of SKOV3 tumors; also recorded: anti-tumor effects of MycB on tumor volume and mass were demonstrated”. Besides, the “Localization of endogenous F-actin (TRITC-Phalloidin)” value in data set [4] (Myc B 25 nM) is “disruption of F-actin at the cell periphery and collapse into large aggregates in the cytoplasm of the cells”.
